Reference: patent US10620222B2, “Electrified compositions for determining the risk of developing adolescent idiopathic scoliosis through the use of GI protein receptor” (CHU Sainte-Justine, priority 2008, dated 2020)
Values joined by “and” are separate entries in the source; they are usually repeats but may differ in a detail not shown here. Equal entries are not always repeated.

Columns and labels:
[1] = test system: receptors coupled to Gi proteins expressed on osteoblasts; assay: Cellular Dielectric Spectroscopy (CDS, CELLKEY) response to Gi-coupled receptor ligands in osteoblasts from control and AIS subjects; type: cell-based, human; settings: for dZiec value: n1, n2 of Exper. 1-3
Text: Bone specimens were obtained intraoperatively from vertebras (varying from T3 to L4 according to the surgical procedure performed), while with trauma cases used as non-scoliotic controls bone specimens were obtained from other anatomical sites (tibia or femur, and in one case from an iliac crest biopsy). Osteoblasts and myoblasts isolated as previously described (Moreau A, Wang D S, Forget S et al. Melatonin Signaling Dysfunction in Adolescent Idiopathic Scoliosis. Spine 2004; 29:1772-81; Azeddine et al., 2007 Molecular determinants of melatonin signaling dysfunction in adolescent idiopathic scoliosis. Clin Orthop Relat Res. 2007, 462:45-52), were cultured at 37° C./5% CO2 in MEM supplemented with 10% fetal bovine serum (FBS) and 100 μg/mL streptomycin. Prior to the experiment, cells were seeded into the CELLKEY™ label-free cellular analysis system standard 96-well plates at a density of 5×10^4/well and grown for 24 h and incubated in standard conditions (37° C./5% CO2). In some plates, Pertussis toxin (100 ng/mL, Sigma, Oakville, ON, Canada) treatment was performed 16 h before the CDS assay. Following overnight incubation, plates were placed onto the CELLKEY™ label-free cellular analysis system and growth medium was exchanged to assay buffer (Hanks, Balanced Salt Solution containing 20 mM HEPES and 0.1% BSA) before starting the experiment. Cells were then allowed to equilibrate at room temperature for 30 min. Pre-addition measurements were made for 5 min to obtain a baseline reading. […] The quick update rate (2 s.) of the CELLKEY™ label-free cellular analysis system allows detection of these immediate changes in impedance. Impedance measurements were collected for 10 min to 15 min at 28° C. after ligand addition to monitor cellular responses to ligand interaction and to generate CELLKEY™ label-free cellular analysis system response profiles that are characteristic of the signaling mechanisms used.
(§1) The response induced by the various ligands to their receptors was measured by cellular dielectric spectroscopy (CDS) using the CELLKEY™ label-free cellular analysis technology. (MDS Sciex, San Francisco, Calif., USA). The CELLKEY™ label-free cellular analysis system integrates a proprietary impedance measurement system, custom 96-well microliter plate, onboard 96-well fluidics, and environment control and custom acquisition and analysis software in a full solution package (MDS Sciex) that is compatible with commercially available robotic platforms. Small voltage at 24 frequencies, from 1 KHz to 10 MHz, is applied to a monolayer of cells settled in a 96-well microplate containing electrodes at the bottom, and the resultant current is measured at an update rate of 2 s. […] Onboard fluid additions and exchanges are handled by 96-well head fluid delivery device with a range of 5-500 μL. In addition to the cell plate location, the CELLKEY™ label-free cellular analysis system includes two additional stations for 96- or 384-well compound plates. All aspects of assay set up, execution, and data acquisition and analysis are controlled by CELLKEY™ label-free cellular analysis software.
The minimal (min) and maximal (max) values represent the mean of three independent measurements performed in duplicate (six values in total) for a given patient/control subject. […] Duplicates (n1 and n2) of three independent experiments are presented.

[2] = test system: melatonin signaling in PBMCs; assay: CDS response to iodomelatonin in PBMCs from control and IS subjects; type: cell-based, human
Text: Blood samples were obtained from patients and control groups and collected in blood collection tubes containing EDTA and then centrifuged on a Ficoll-Plaque (GE Healthcare, Mississauga, ON, Canada) solution to obtain PBMCs (containing principally lymphocytes). PBMC fractions were preserved frozen in FBS with 10% DMSO and kept in liquid nitrogen until thawed and assayed. PBMCs were harvested from stock tissue culture flask and washed three times with assay buffer. Cells were isolated from the heparinized peripheral by ficoll-Hypaque density gradient centrifugation, and cultured in RPMI 1640 medium supplemented with 10% FBS, 100 μg/mL streptomycin and 1% of phytohemagglutinin. Following 48 h of incubation at 37° C./CO2 cells were washed three times with assay buffer and seeded into the CELLKEY™ label-free cellular analysis system small 96-well plates. Typically, an average of 1×10^5 cells to 1.5×10^5 were added to each well and allowed to settle for 30 min at room temperature. […] After the cells settled, the cell plate was placed on the instrument and experiments were initiated in the manner described below after the acquisition of 5 min of baseline measurements. All experiments were conducted at 28° C.
as §1
PBMCs were isolated from control subjects, IS subjects as described in Example 2 above.

[3] = test system: Gi protein-mediated pathway in MG63 osteoblast cell line; type: cell-based; settings: 100 ng/mL PTX 16 h, stimulation with 10 μM ligand, 37° C., 5 min
Description: The ability of CDS to detect the relative part of the Gi protein-mediated pathway in melatonin signaling was determined by blocking this pathway with pertussis toxin (PTX). This toxin ADP-ribosylates the a subunit of the heterotrimeric Gi protein and thereby prevents its activity. The MG63 osteoblast cell line was serum-starved for 16 h in the absence or presence of 100 ng/mL of PTX to inhibit the αi subunit of Gi protein. […] Cellular responses were measured with CELLKEY™ label-free cellular analysis system as described in the Material and Methods section.

[4] = osteoblasts of control subjects, 300 μM ligand, from FIGS. 11A-11F
[5] = PBMCs of control subjects, 300 μM, from FIG. 12A

COc1ccc2[nH]c(I)c(CCNC(C)=O)c2c1 [Iodomelatonin, 2-lodomelatonin]
CDS response, dependence on concentration ([1]; osteoblasts from both control and IS patients, FIGS. 4A-4C): concentration-dependent manner
dZiec value ([1]; osteoblasts of AIS#1020 (Group 3), 300 μM ligand): 69.57 and 66.57 and 85.25 and 97.25 and 83.71 and 74.11
dZiec value ([1]; osteoblasts of AIS#1198 (Group 3 in Table II), 300 μM ligand): 61.05 and 65.29 and 70.29 and 60.97 and 57.37
dZiec value ([1]; osteoblasts of AIS#1385 (Group 2), 300 μM ligand): 66.51 and 67.51 and 79.93 and 81.93 and 79.02 and 69.42
dZiec value ([1]; osteoblasts of AIS#1468 (Group 3), 300 μM ligand): 91.38 and 88.38 and 101.69 and 113.69 and 102.83 and 93.23
dZiec value ([1]; osteoblasts of AIS#1474 (Group 1), 300 μM ligand): 33.02 and 32.02 and 38.33 and 32.33 and 39.97 and 36.37
dZiec value ([1]; osteoblasts of AIS#1488 (Group 1), 300 μM ligand): 25.43 and 27.43 and 30.31 and 27.31 and 19.17 and 19.57
dZiec value ([1]; osteoblasts of AIS#1513 (Group 3), 300 μM ligand): 83.92 and 80.92 and 94.08 and 106.08 and 95.30 and 85.70
dZiec value ([1]; osteoblasts of AIS#1550 (Group 2), 300 μM ligand): 55.99 and 48.99 and 60.90 and 62.90 and 62.74 and 59.14
dZiec value ([1]; osteoblasts of control CTR#60, 300 μM ligand): 142.55/— and 139.55/— and 149.20/— and 161.20/— and 152.18/— and 142.58/—
dZiec value ([1]; osteoblasts of control CTR#61, 300 μM ligand): 130.88/— and 127.88/— and 138.31/— and 150.31/— and 140.90/— and 131.30/—
dZiec value ([1]; osteoblasts of control CTR#69, 300 μM ligand): 150.99/— and 147.99/— and 161.10/— and 173.10/— and 162.34/— and 152.74/—
Absolute dZiec, control value of max diff. (maximal control value) [1, 4]: 159
Absolute dZiec, control value of min diff. (minimal control value) [1, 4]: 120
Absolute dZiec, Group 1, max diff. (group value) ([1]; osteoblasts, AIS Group 1 value of max diff., 300 μM ligand, from FIGS. 11A-11F): 15
Absolute dZiec, Group 1, min diff. (group value) ([1]; osteoblasts, AIS Group 1 value of min diff., 300 μM ligand, from FIGS. 11A-11F): 35
Absolute dZiec, Group 2, max diff. (group value) ([1]; osteoblasts, AIS Group 2 value of max diff., 300 μM ligand, from FIGS. 11A-11F): 57
Absolute dZiec, Group 2, min diff. (group value) ([1]; osteoblasts, AIS Group 2 value of min diff., 300 μM ligand, from FIGS. 11A-11F): 84
Absolute dZiec, Group 3, max diff. (group value) ([1]; osteoblasts, AIS Group 3 value of max diff., 300 μM ligand, from FIGS. 11A-11F): 90
Absolute dZiec, Group 3, min diff. (group value) ([1]; osteoblasts, AIS Group 3 value of min diff., 300 μM ligand, from FIGS. 11A-11F): 101
magnitude of CDS response in IS osteoblasts vs control ([1]; osteoblasts, FIGS. 4A-4C): significantly lower
maximal magnitude of CDS response ([2]; PBMCs from IS patients, 300 μM): 110 ohms
minimum magnitude of CDS response ([2]; PBMCs from IS patients, 300 μM): 16 ohms
minimal magnitude of CDS response ([2]; PBMCs from healthy volunteers, 300 μM): 124 ohms
melatonin signaling response (CDS) ([2]; PBMCs from normal/healthy subjects, 300 μM): greater than 120 ohms
Absolute dZiec, control value of max diff. (maximal control value) [2, 5]: 225
Absolute dZiec, control value of min diff. (minimal control value) [2, 5]: 124
responsiveness of PBMCs from patients with IS compared to healthy volunteers ([2]; PBMCs, FIG. 12A, melatonin data not shown): less responsive
Absolute dZiec, Group 1, max diff. (group value) ([2]; PBMCs, Group 1 value of max diff., 300 μM, from FIG. 12A): 16
Absolute dZiec, Group 1, min diff. (group value) ([2]; PBMCs, Group 1 value of min diff., 300 μM, from FIG. 12A): 36
Absolute dZiec, Group 2, max diff. (group value) ([2]; PBMCs, Group 2 value of max diff., 300 μM, from FIG. 12A): 49
Absolute dZiec, Group 2, min diff. (group value) ([2]; PBMCs, Group 2 value of min diff., 300 μM, from FIG. 12A): 75
Absolute dZiec, Group 3, max diff. (group value) ([2]; PBMCs, Group 3 value of max diff., 300 μM, from FIG. 12A): 86
Absolute dZiec, Group 3, min diff. (group value) ([2]; PBMCs, Group 3 value of min diff., 300 μM, from FIG. 12A): 110
mean of CDS response ([2]; PBMCs, IS group 1, 300 μM): 27.86±4.18 ohms
mean of CDS response ([2]; PBMCs, IS group 2, 300 μM): 65.71±3.42 ohms
mean of CDS response ([2]; PBMCs, IS group 3, 300 μM): 97.94±1.36 ohms
mean of CDS response ([2]; PBMCs, control group, 300 μM): 155.17±3.91 ohms
inhibition extent of the CDS response by PTX treatment [3]: ~90%
